According to patent US11331369B2, “Endoparasitic depsipeptides” (Zoetis Services LLC, priority 2017, dated 2022):

What was measured:
[1] = system: 4th stage larvae (L4) of Dirofilaria immitis; experiment: Dirofilaria immitis, L4 Stage (DiL4) In Vitro Assay; assay type: cell-based; conditions: Dirofilaria immitis, 72 h, read-out: DiL4 Minimum Effective Dose (MED), approximately 72 hours incubation; L4 larvae assessed for survival or paralysis
[2] = system: microfilariae of Dirofilaria immitis; experiment: Dirofilaria immitis, Microfilaria (DiMF) In vitro Assay; assay type: cell-based; conditions: 72 h, read-out: DiMF Minimum Effective Dose (MED), approximately 72 hours incubation, microfilariae assessed for survival or paralysis

For `CC(C)Cc1ccnn1Cc1ccc(C[C@H]2OC(=O)[C@H](CC(C)C)N(C)C(=O)[C@@H](C)OC(=O)[C@H](CC(C)C)N(C)C(=O)[C@@H](Cc3ccc(Cn4nccc4CC(C)C)cc3)OC(=O)[C@H](CC(C)C)N(C)C(=O)[C@@H](C)OC(=O)[C@H](CC(C)C)N(C)C2=O)cc1` [Example 1b-209, (3S,6R,9S,12R,15S,18R,21S,24R)-3,9,15,21-tetraisobutyl-6,18-bis(4-((5-isobutyl-1H-pyrazol-1-yl)methyl)benzyl)-4,10,12,16, 22,24-hexamethyl-1,7,13,19-tetraoxa-4,10,16,22-tetraazacyclotetracosan-2,5,8,11,14,17,20,23-octaone], the minimal effective concentration [1] was 0.0001 to 0.001 µM and the minimal effective concentration [2] was 0.01 to 0.1 µM.
Work on `CC(C)C[C@H]1C(=O)O[C@H](Cc2ccc(Cn3cc(C#N)cn3)cc2)C(=O)N(C)[C@@H](CC(C)C)C(=O)O[C@H](C)C(=O)N(C)[C@@H](CC(C)C)C(=O)O[C@H](Cc2ccccc2)C(=O)N(C)[C@@H](CC(C)C)C(=O)O[C@H](C)C(=O)N1C` [Example 2-10, 1-(4-(((2R,5S,8R,11S,14R,17S,20R,23S)-14-benzyl-5,11,17,23-tetraisobutyl-4,8,10,16,20,22-hexamethyl-3,6,9,12,15,18,21,24-octaoxo-1,7,13,19-tetraoxa-4,10,16,22-tetraazacyclotetracosan-2-yl)methyl)benzyl)-1H-pyrazole-4-carbonitrile] yielded a minimal effective concentration [1] of 0.0001 to 0.001 µM and a minimal effective concentration [2] of 0.001 to 0.01 µM.
`CC(C)C[C@H]1C(=O)O[C@H](Cc2ccc(Cn3cc(Cl)cn3)cc2)C(=O)N(C)[C@@H](CC(C)C)C(=O)O[C@H](C)C(=O)N(C)[C@@H](CC(C)C)C(=O)O[C@H](Cc2ccccc2)C(=O)N(C)[C@@H](CC(C)C)C(=O)O[C@H](C)C(=O)N1C` [Example 2-25, (3S,6R,9S,12R,15S,18R,21S,24R)-6-benzyl-18-(4-((4-chloro-1H-pyrazol-1-yl)methyl)benzyl)-3,9,15,21-tetraisobutyl-4,10,12,16,22,24-hexamethyl-1,7,13,19-tetraoxa-4,10,16,22-tetraazacyclotetracosan-2,5,8,11,14,17,20,23-octaone] gave a minimal effective concentration [1] of 0.0001 to 0.001 µM and a minimal effective concentration [2] of 0.001 to 0.01 µM.
With `CC(C)C[C@H]1C(=O)O[C@H](Cc2ccc(Cn3cc(I)cn3)cc2)C(=O)N(C)[C@@H](CC(C)C)C(=O)O[C@H](C)C(=O)N(C)[C@@H](CC(C)C)C(=O)O[C@H](Cc2ccccc2)C(=O)N(C)[C@@H](CC(C)C)C(=O)O[C@H](C)C(=O)N1C` [Example 2-41, (3S,6R,9S,12R,15S,18R,21S,24R)-6-benzyl-18-(4-((4-iodo-1H-pyrazol-1-yl)methyl)benzyl)-3,9,15,21-tetraisobutyl-4,10,12,16,22,24-hexamethyl-1,7,13,19-tetraoxa-4,10,16,22-tetraazacyclotetracosan-2,5,8,11,14,17,20,23-octaone] the minimal effective concentration [1] was 0.0001 to 0.001 µM and the minimal effective concentration [2] was 0.001 to 0.01 µM.
`CC(C)C[C@H]1C(=O)O[C@H](Cc2ccc(Cn3nc(C(F)(F)F)cc3C(F)(F)F)cc2)C(=O)N(C)[C@@H](CC(C)C)C(=O)O[C@H](C)C(=O)N(C)[C@@H](CC(C)C)C(=O)O[C@H](Cc2ccccc2)C(=O)N(C)[C@@H](CC(C)C)C(=O)O[C@H](C)C(=O)N1C` [Example 2-55, (3S,6R,9S,12R,15S,18R,21S,24R)-6-benzyl-18-(4-((3,5-bis(trifluoromethyl)-1H-pyrazol-1-yl)methyl)benzyl)-3,9,15,21-tetraisobutyl-4,10,12,16,22,24-hexamethyl-1,7,13,19-tetraoxa-4,10,16,22-tetraazacyclotetracosan-2,5,8,11,14,17,20,23-octaone] showed a minimal effective concentration [1] of 0.0001 to 0.001 µM and a minimal effective concentration [2] of 0.001 to 0.01 µM.
`CC(C)C[C@H]1C(=O)O[C@H](Cc2ccc(Cn3nc(C#N)cc3C#N)cc2)C(=O)N(C)[C@@H](CC(C)C)C(=O)O[C@H](C)C(=O)N(C)[C@@H](CC(C)C)C(=O)O[C@H](Cc2ccccc2)C(=O)N(C)[C@@H](CC(C)C)C(=O)O[C@H](C)C(=O)N1C` [Example 2-62, 1-(4-(((2R,5S,8R,11S,14R,17S,20R,23S)-14-benzyl-5,11,17,23-tetraisobutyl-4,8,10,16,20,22-hexamethyl-3,6,9,12,15,18,21,24-octaoxo-1,7,13,19-tetraoxa-4,10,16,22-tetraazacyclotetracosan-2-yl)methyl)benzyl)-1H-pyrazole-3,5-dicarbonitrile] showed a minimal effective concentration [1] of 0.0001 to 0.001 µM and a minimal effective concentration [2] of 0.001 to 0.01 µM.
`CC(C)C[C@H]1C(=O)O[C@H](Cc2ccc(Cn3cc(C#Cc4ccccc4)cn3)cc2)C(=O)N(C)[C@@H](CC(C)C)C(=O)O[C@H](C)C(=O)N(C)[C@@H](CC(C)C)C(=O)O[C@H](Cc2ccccc2)C(=O)N(C)[C@@H](CC(C)C)C(=O)O[C@H](C)C(=O)N1C` [Example 2-64, (3S,6R,9S,12R,15S,18R,21S,24R)-6-benzyl-3,9,15,21-tetraisobutyl-4,10,12,16,22,24-hexamethyl-18-(4-((4-(phenylethynyl)-1H-pyrazol-1-yl)methyl)benzyl)-1,7,13,19-tetraoxa-4,10,16,22-tetraazacyclotetracosan-2,5,8,11,14,17,20,23-octaone] was tested, and the minimal effective concentration [1] was 0.0001 to 0.001 µM and the minimal effective concentration [2] was 0.01 to 0.1 µM.
`CC#Cc1cnn(Cc2ccc(C[C@H]3OC(=O)[C@H](CC(C)C)N(C)C(=O)[C@@H](C)OC(=O)[C@H](CC(C)C)N(C)C(=O)[C@@H](Cc4ccccc4)OC(=O)[C@H](CC(C)C)N(C)C(=O)[C@@H](C)OC(=O)[C@H](CC(C)C)N(C)C3=O)cc2)c1` [Example 2-76, (3S,6R,9S,12R,15S,18R,21S,24R)-6-benzyl-3,9,15,21-tetraisobutyl-4,10,12,16,22,24-hexamethyl-18-(4-((4-(prop-1-yn-1-yl)-1H-pyrazol-1-yl)methyl)benzyl)-1,7,13,19-tetraoxa-4,10,16,22-tetraazacyclotetracosan-2,5,8,11,14,17,20,23-octaone] was tested, and the minimal effective concentration [1] was 0.0001 to 0.001 µM and the minimal effective concentration [2] was 0.001 to 0.01 µM.
Work on `CCC#Cc1cnn(Cc2ccc(C[C@H]3OC(=O)[C@H](CC(C)C)N(C)C(=O)[C@@H](C)OC(=O)[C@H](CC(C)C)N(C)C(=O)[C@@H](Cc4ccccc4)OC(=O)[C@H](CC(C)C)N(C)C(=O)[C@@H](C)OC(=O)[C@H](CC(C)C)N(C)C3=O)cc2)c1` [Example 2-77, (3S,6R,9S,12R,15S,18R,21S,24R)-6-benzyl-18-(4-((4-(but-1-yn-1-yl)-1H-pyrazol-1-yl)methyl)benzyl)-3,9,15,21-tetraisobutyl-4,10,12,16,22,24-hexamethyl-1,7,13,19-tetraoxa-4,10,16,22-tetraazacyclotetracosan-2,5,8,11,14,17,20,23-octaone] yielded a minimal effective concentration [1] of 0.0001 to 0.001 µM and a minimal effective concentration [2] of 0.001 to 0.01 µM.
In the case of `CC(C)C[C@H]1C(=O)O[C@H](Cc2cccc(Cn3cc(Br)cn3)c2)C(=O)N(C)[C@@H](CC(C)C)C(=O)O[C@H](C)C(=O)N(C)[C@@H](CC(C)C)C(=O)O[C@H](Cc2cccc(Cn3cc(Br)cn3)c2)C(=O)N(C)[C@@H](CC(C)C)C(=O)O[C@H](C)C(=O)N1C` [Example 4-2, (3S,6R,9S,12R,15S,18R,21S,24R)-6,18-bis(3-((4-bromo-1H-pyrazol-1-yl)methyl)benzyl)-3,9,15,21-tetraisobutyl-4,10,12,16,22,24-hexamethyl-1,7,13,19-tetraoxa-4,10,16,22-tetraazacyclotetracosan-2,5,8,11,14,17,20,23-octaone], the minimal effective concentration [1] was 0.0001 to 0.001 µM and the minimal effective concentration [2] was 0.001 to 0.01 µM.
`CC(C)C[C@H]1C(=O)O[C@H](Cc2cccc(Cn3ccnc3Br)c2)C(=O)N(C)[C@@H](CC(C)C)C(=O)O[C@H](C)C(=O)N(C)[C@@H](CC(C)C)C(=O)O[C@H](Cc2ccc(Cn3ccnc3Br)cc2)C(=O)N(C)[C@@H](CC(C)C)C(=O)O[C@H](C)C(=O)N1C` [Example 7-3, (3S,6R,9S,12R,15S,18R,21S,24R)-6-[[3-[(2-bromoimidazol-1-yl)methyl]phenyl]methyl]-18-[[4-[(2-bromoimidazol-1-yl)methyl]phenyl]methyl]-3,9,15,21-tetraisobutyl-4,10,12,16,22,24-hexamethyl-1,7,13,19-tetraoxa-4,10,16,22-tetrazacyclotetracosane-2,5,8,11,14,17,20,23-octaone] showed a minimal effective concentration [1] of 0.0001 to 0.001 µM and a minimal effective concentration [2] of 0.001 to 0.01 µM.
Compound `CC(C)C[C@H]1C(=O)O[C@H](Cc2ccc(Cn3ccnc3C(F)(F)F)cc2)C(=O)N(C)[C@@H](CC(C)C)C(=O)O[C@H](C)C(=O)N(C)[C@@H](CC(C)C)C(=O)O[C@H](Cc2ccccc2)C(=O)N(C)[C@@H](CC(C)C)C(=O)O[C@H](C)C(=O)N1C` [Example 8-12, (3S,6R,9S,12R,15S,18R,21S,24R)-6-benzyl-3,9,15,21-tetraisobutyl-4,10,12,16,22,24-hexamethyl-18-(4-((2-(trifluoromethyl)-1H-imidazol-1-yl)methyl)benzyl)-1,7,13,19-tetraoxa-4,10,16,22-tetraazacyclotetracosan-2,5,8,11,14,17,20,23-octaone] has a minimal effective concentration [1] of 0.0001 to 0.001 µM and a minimal effective concentration [2] of 0.001 to 0.01 µM.
`CC(C)C[C@H]1C(=O)O[C@H](Cc2ccc(Cn3ccc(C#N)c3)cc2)C(=O)N(C)[C@@H](CC(C)C)C(=O)O[C@H](C)C(=O)N(C)[C@@H](CC(C)C)C(=O)O[C@H](Cc2ccc(Cn3ccc(C#N)c3)cc2)C(=O)N(C)[C@@H](CC(C)C)C(=O)O[C@H](C)C(=O)N1C` [Example 9-25, 1-[[4-[[(2R,5S,8R,11S,14R,17S,20R,23S)-14-[[4-[(3-cyanopyrrol-1-yl)methyl]phenyl]methyl]-5,11,17,23-tetraisobutyl-4,8,10,16,20,22-hexamethyl-3,6,9,12,15,18,21,24-octaoxo-1,7,13,19-tetraoxa-4,10,16,22-tetrazacyclotetracos-2-yl]methyl]phenyl]methyl]pyrrole-3-carbonitrile] showed a minimal effective concentration [1] of 0.0001 to 0.001 µM and a minimal effective concentration [2] of 0.001 to 0.01 µM.
